Measurements as given in article PMC6957264 (Bioconjugate chemistry, 2017).

How the values were obtained:
[1] = test system: C1a and C1b domains of PKCε; settings: C1a vs C1b; cited from earlier work
PKCδ C1b domain = PKCδ C1b domain (Mus musculus, UniProt P28867); experiment: [3H]PDBu competitive binding assay, isolated C1b domain of PKCδ; settings: read-out: Kd for the binding of [3H]PDBu to the PKCδ C1b
[2] = test system: EGFP-tagged PKCδ in CHO cells; experiment: Translocation of EGFP-tagged PKCδ in CHO cells, confocal microscopy; format: cell-based, Chinese hamster; settings: 10 μM compound, images at 0, 5 and 10 min
isolated PKCδ C1a domain = settings: cited from earlier work
isolated PKCδ C1b domain = settings: read-out: Kd for the isolated PKCδ C1b domain; cited from earlier work
[3] = test system: EGFP-tagged PKCε in LNCaP cells; experiment: Translocation of GFP-tagged PKCε in LNCaP cells, confocal microscopy; format: cell-based, human; settings: 1 μM, single experiment

Chain of PKCδ C1b domain (P28867 231-280 limits assumed): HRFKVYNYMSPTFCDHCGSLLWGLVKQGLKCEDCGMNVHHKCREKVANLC

## sn-1,2-diacylglycerol [DAG]
[1]
  difference in affinity between the C1a and C1b domains of PKCε: ≤ 3 fold

## CCCC(=O)O[C@@H]1[C@@H](C)[C@@]2(O)[C@@H](C=C(CO)C[C@]3(O)C(=O)C(C)=C[C@@H]23)[C@@H]2C(C)(C)[C@]12OC(=O)CCC [PDBu, phorbol 12,13-dibutyrate]
PKCδ C1b domain
  Kd: 0.19 nM
[2]
  translocation of EGFP-PKCδ from cytosol to plasma membranes: not observed more clearly than those by monomeric and dimeric DAG–lactones
Isolated PKCδ C1a domain; C1a vs C1b, isolated domains
  difference in Kd between isolated PKCδ C1a and C1b domains: 6 fold
Isolated PKCδ C1a domain; read-out: Kd for the isolated PKCδ C1a domain
  Kd: 2 nM
Isolated PKCδ C1b domain
  Kd: 0.33 nM

## CCCCCCCCCCCCCC(=O)O[C@@H]1[C@@H](C)[C@@]2(O)[C@@H](C=C(CO)C[C@]3(O)C(=O)C(C)=C[C@@H]23)[C@@H]2C(C)(C)[C@]12OC(C)=O [PMA, phorbol 12-myristate 13-acetate]
[3]
  plasma membrane translocation of PKCε: dramatic plasma membrane translocation
[1]
  difference in affinity between the C1a and C1b domains of PKCε: ≤ 3 fold
